Results from patent US11603356B2, “Amorphous form of a complement component C5a receptor” (CHEMOCENTRYX, INC., priority 2019, dated 2023).
Converted amounts (≈) assume the structure as drawn.

How the values were obtained:
[1] = Kinetic solubility in 0.1 N HCl, FaSSGF and FeSSIF at 37° C.; type: physicochemical
Experimental: The in vitro solubility of a crystalline form of Compound 1 and the amorphous form of Compound 1 was tested.
The amorphous form was prepared as described in Example 2, Method 1, and the crystalline form of Compound 1 was prepared as described in Example 1.
Crystalline and amorphous forms of Compound 1 were saturated in three different media: 0.1 N HCl solution, Fasted State Simulated Gastric Fluid (FaSSGF), and Fed State Simulated Intestinal Fluid (FeSSIF). The samples were shaken inside a 37° C. water bath at 40 rpm. The concentration of Compound 1 dissolved in these samples was measured by HPLC at four different time points (0.5, 1, 2 and 4 hours).

[2] = Solubility in IV formulation saline/PEG400/Tween80; type: physicochemical; details: saline/PEG400/Tween80 (88:10:1)
Experimental: Intravenous (IV) formulations of a crystalline form of Compound 1 and the amorphous form of Compound 1 were prepared by contacting the amorphous of crystalline Compound 1 with saline/PEG400/Tween80 (88:10:1). The crystalline form of Compound 1 was prepared as described in Example 1, the amorphous form of Compound was prepared as described in Example 2, Method 1.

[3] = In vivo rat PK study, oral aqueous liquid suspension formulation; details: oral 10 mg/kg
Experimental: An in vivo rat PK study was conducted to compare the PK profile and bioavailability of crystalline form against amorphous form of Compound 1 in an aqueous liquid suspension formulation, which contained 0.5% w/v Hydroxypropyl Cellulose (Klucel GF grade) and 0.5% w/v Poloxamer F-68 (BASF Kolliphor P188). Each animal was orally administrated 10 mg/kg of Compound 1 at 5 mL/kg dosing volume (a dosing concentration of 2 mg/mL).

[4] = suspension in 0.5% w/v Klucel GF and 0.5% w/v Poloxamer F-68, 10 mg/kg

- CCX168 Solubility at 37° C. ([1]; 0.1N HCl (pH 1.06), 0.5 Hr.): ND (ND = Not Detected)
- CCX168 Solubility at 37° C. ([1]; 0.1N HCl (pH 1.06), 1 Hr.): ND (ND = Not Detected)
- CCX168 Solubility at 37° C. ([1]; 0.1N HCl (pH 1.06), 2 Hr.): ND (ND = Not Detected)
- CCX168 Solubility at 37° C. ([1]; 0.1N HCl (pH 1.06), 4 Hr.): ND (ND = Not Detected)
- CCX168 Solubility at 37° C. ([1]; FaSSGF (pH 1.64), 0.5 Hr.): ND (ND = Not Detected)
- CCX168 Solubility at 37° C. ([1]; FaSSGF (pH 1.64), 1 Hr.): ND (ND = Not Detected)
- solubility at 2 h ([1]; Fasted State Simulated Gastric Fluid (FaSSGF), 37 °C, pH 1.64, fassgf or other biorelevant, thermodynamic from solid, FaSSGF (pH 1.64), 2 Hr., read-out: CCX168 Solubility at 37° C.): < 3.1 µg/mL
- solubility at 4 h ([1]; Fasted State Simulated Gastric Fluid (FaSSGF), 37 °C, pH 1.64, fassgf or other biorelevant, thermodynamic from solid, FaSSGF (pH 1.64), 4 Hr., read-out: CCX168 Solubility at 37° C.): < 3.1 µg/mL
- CCX168 Solubility at 37° C. ([1]; FeSSIF (pH 4.90), 1 Hr.): ND (ND = Not Detected)
- CCX168 Solubility at 37° C. ([1]; FeSSIF (pH 4.90), 2 Hr.): ND (ND = Not Detected)
- CCX168 Solubility at 37° C. ([1]; FeSSIF (pH 4.90), 4 Hr.): ND (ND = Not Detected)
- solubility at 0.5 h ([1]; Fed State Simulated Intestinal Fluid (FeSSIF), 37 °C, pH 4.9, fessif, thermodynamic from solid, FeSSIF (pH 4.90), 0.5 Hr., read-out: CCX168 Solubility at 37° C.): < 3.1 µg/mL
- Solubility in IV Formulation ([2]; 0.5 Hr.): 15.2 µg/mL (≈ 26.1 µM)
- Solubility in IV Formulation ([2]; 1 Hr.): 17.2 µg/mL (≈ 29.6 µM)
- Solubility in IV Formulation ([2]; 2 Hr.): 20.5 µg/mL (≈ 35.2 µM)
- Solubility in IV Formulation ([2]; 4 Hr.): 21.6 µg/mL (≈ 37.1 µM)
- Solubility in IV Formulation ([2]; 8 Hr.): 22.0 µg/mL (≈ 37.8 µM)
- Solubility in IV Formulation ([2]; 24 Hr.): 21.9 µg/mL (≈ 37.7 µM)
- Solubility in IV Formulation ([2]; 48 Hr.): 21.9 µg/mL (≈ 37.7 µM)
- Solubility in IV Formulation ([2]; 96 Hr.): 21.6 µg/mL (≈ 37.1 µM)
- half-life ([3]; in vivo, po, 10 mg/kg, suspension in 0.5% w/v Klucel GF and 0.5% w/v Poloxamer F-68): 3.9 h
- MRT ([3]; in vivo, po, 10 mg/kg, suspension in 0.5% w/v Klucel GF and 0.5% w/v Poloxamer F-68, read-out: MRT): 6 h
- Tmax ([3]; in vivo, po, 10 mg/kg, suspension in 0.5% w/v Klucel GF and 0.5% w/v Poloxamer F-68, read-out: Tmax): 1.5 h
- AUC0-t [3, 4]: 983 ng·h/mL
- AUCinf [3, 4]: 996 ng·h/mL
- Cmax [3, 4]: 129 ng/mL
Structure (SMILES): Cc1ccc(NC(=O)[C@H]2CCCN(C(=O)c3c(C)cccc3F)[C@H]2c2ccc(NC3CCCC3)cc2)cc1C(F)(F)F [Crystalline Compound 1, (2R,3S)-2-(4-(cyclopentylamino)phenyl)-1-(2-fluoro-6-methylbenzoyl)-N-(4-methyl-3-(trifluoromethyl)phenyl)piperidine-3-carboxamide]
